Experimental data taken from ChEMBL document CHEMBL3612061, “Imidazopyridines as a source of biological activity and their pharmacological potentials-Infrared and Raman spectroscopic evidence of their content in pharmaceuticals and plant materials” (Bioorg Med Chem, 2015).
≈ marks a conversion by molar mass, not a printed value.

Columns and labels:
Cerebral cortex = experiment: Inhibition of GABA uptake in rat cerebral cortex; format: functional, tissue-based
MDA-MB-231 = experiment: Cytotoxicity against human MDA-MB-231 cells; format: functional, cell-based
MCF7 = experiment: Cytotoxicity against human MCF7 cells; format: functional, cell-based
[1] = Cytotoxicity against human SKBR3 cells; format: functional, cell-based; details: SK-BR-3
[2] = Cytotoxicity against mouse leukemia cells; format: functional, cell-based; details: Leukemia cell
[3] = biological target: T1, Type-2 angiotensin II receptor (Rattus norvegicus, UniProt P35351); experiment: Inhibition of rat AT2 receptor
T1 sequence (P35351 whole entry): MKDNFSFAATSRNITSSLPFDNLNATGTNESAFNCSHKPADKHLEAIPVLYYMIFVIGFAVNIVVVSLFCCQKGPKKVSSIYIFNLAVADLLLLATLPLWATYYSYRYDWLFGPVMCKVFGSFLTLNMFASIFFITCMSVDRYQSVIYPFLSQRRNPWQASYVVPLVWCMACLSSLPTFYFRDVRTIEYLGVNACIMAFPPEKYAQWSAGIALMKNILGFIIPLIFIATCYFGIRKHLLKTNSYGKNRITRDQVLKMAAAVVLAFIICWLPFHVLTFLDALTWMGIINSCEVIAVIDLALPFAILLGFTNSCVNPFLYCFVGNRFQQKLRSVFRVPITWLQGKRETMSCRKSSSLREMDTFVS

[4] = tested on: Classical swine fever virus; experiment: Antiviral activity against Classical swine fever virus assessed as protection of viral infection by cell based assay; format: functional
Human respirovirus 3 = experiment: Antiviral activity against Parainfluenza type 3 assessed as protection against virus-induced cytopathogenic effect by cell based assay; format: functional; details: read-out: ID50 (the source's name)
Yellow fever virus = experiment: Antiviral activity against Yellow fever virus assessed as protection against virus-induced cytopathogenic effect by cell based assay; format: functional; details: read-out: ID50 (the source's name)
[5] = tested on: Vesicular stomatitis virus; experiment: Antiviral activity against Vesicular stomatitis virus assessed as protection against virus-induced cytopathogenic effect by cell based assay; format: functional; details: read-out: ID50 (the source's name)

| Structure (SMILES) | IC50 (MDA-MB-231) | IC50 (MCF7) | IC50 [1] | also measured |
| --- | --- | --- | --- | --- |
| O=C(O)C1Cc2[nH]cnc2CN1 (configuration not stated) |  |  |  | IC50 (Cerebral cortex): 270000 nM |
| Nc1nccc2c1ncn2[C@@H]1O[C@H](CO)[C@@H](O)[C@H]1O | < 100 nM | < 100 nM | < 100 nM |  |
| OC[C@H]1O[C@@H](n2cnc3/c(=N\O)[nH]cnc32)[C@H](O)[C@@H]1O |  |  |  | IC50 [2]: 900 nM |
| OC[C@H]1O[C@@H](n2cnc3c(NO)cc(Cl)nc32)[C@H](O)[C@@H]1O |  |  |  | IC50 [2]: 900 nM |
| COc1ccc(CN2C=NC3CN(C(=O)C(c4ccccc4)c4ccccc4)C(C(=O)O)CC32)cc1C (configuration not stated) |  |  |  | IC50 [3]: 34 nM |
| Brc1ccc(Cn2ccc3nc(-c4ccccc4)nc-3c2)cc1 |  |  |  | EC50 [4]: 800 nM |
| Nc1nccc2c1ncn2C1C=C(CO)C(O)C1O (configuration not stated) [3-DEAZANEPLANOCIN A] | < 250 nM | < 250 nM | < 250 nM | IC50 (Human respirovirus 3): 0.02 µg/mL (≈ 0.0763 µM); IC50 (Yellow fever virus): 0.02 µg/mL (≈ 0.0763 µM); IC50 [5]: 0.02 µg/mL (≈ 0.0763 µM) |
| Nc1ncnc2c1ncn2[C@@H]1C=C(CO)[C@@H](O)[C@H]1O [NEOPLANOCIN A] | < 25000 nM | < 25000 nM | < 25000 nM |  |
